{"source": "patent US8871794B2", "about": "“Small-molecule agonists for type-2 orexin receptor” (Board of Regents, The University of Texas System, priority 2008, dated 2014)", "key": {"[1]": {"test_system": "orexin/ataxin-3 mice and wild-type controls", "assay": "EEG/EMG sleep/wake recording in orexin/ataxin-3 and wild-type mice", "type": "in vivo, mouse", "description": "(§1) Aspects of this example, including more detailed descriptions of the production of the CAG/orexin-transgenic mice, the cataplexy testing, cannulation (i.c.v.) and orexin administration and EEG/EMG recordings were published in Mieda et al., PNAS USA Mar. 30, 2004; 101(13):4649-54.\n(§2) We administered orexin-A, a nonselective agonist for orexin receptor type 1 (OX1R) and OX2R.\nTo quantify the effects of orexin-A administration on sleep/wake status, we recorded EEG/EMG in orexin/ataxin-3 mice, as well as wild-type controls. […] Nevertheless, some pharmacological effects of exogenous orexins have been reported to vary with time of day (Zeitgeber-dependent effects). We therefore examined the effects of orexin-A administrations in mice both at the onset of the dark (active) phase as well as during the light (resting) phase, again by using a randomized crossover design."}, "[2]": {"test_system": "orexin/ataxin-3-transgenic mice", "assay": "Cataplexy testing in orexin/ataxin-3-transgenic mice", "type": "in vivo", "settings": "3 nmol per mouse i.c.v., first 3 h after injection, vs vehicle", "description": "as §1, §2\nWe examined whether i.c.v. orexin-A administration suppresses cataplectic arrests in orexin/ataxin-3-transgenic mice. By using a randomized crossover design, we administered vehicle and orexin-A to all mice during separate experimental sessions. […] Thus, i.c.v. administration of orexin-A is sufficient to acutely suppress behavioral arrests in this model of narcolepsy."}, "wild-type mice": {"test_system": "wild-type mice", "assay": "Diet-induced obesity in mice", "type": "in vivo, mouse", "description": "To examine whether enhanced OX2R signaling causes resistance to diet-induced obesity, an OX2R selective agonist, [Ala11, D-Leu15] Orexin-B (Akanmu and Honma, 2005 Brain. Res. 1048. 138-145.; Asahi et al., 2003 Bioorg. Med. Chem. Lett. 13.\n111-113) was continuously infused in the lateral ventricles of wild-type mice for 14 days. […] There was no effect of the OX2R selective agonist for OX2R-deficient mice on a high fat diet (n=4, weight gain 3.33±0.61 g), verifying the selectivity of the agonist in vivo."}, "wild type C57BL/6J mice": {"test_system": "wild type C57BL/6J mice", "assay": "Emergence from isoflurane anesthesia (return of righting reflex)", "type": "in vivo, mouse", "experimental": "Loss and Return of Righting Reflex. Induction and emergence from isoflurane or sevoflurane were defined behaviorally as the respective loss and return of the righting reflex and were evaluated as follows. Wild-type C57BL/6J male mice aged 8-14 weeks (Jackson Laboratories). were placed in cylindrical gas-tight, controlled-environment chambers arrayed in parallel (35). After 90 min of habituation with 100% oxygen each day on two successive days, anesthesia was induced with a Drager model 19.1 isoflurane or sevoflurane vaporizer by using 8-12 stepwise incremental increases in the concentration of anesthetic gas dissolved in 100% oxygen. Anesthetic gas concentrations were determined in triplicate during the last 2 min at each step (35). Initial volatile anesthetic concentrations were 0.44% isoflurane or 0.96% sevoflurane. After 15 min at each concentration to allow for equilibration of the mouse with the anesthetic vapors, the concentration of volatile anesthetic was increased by 6±3% of the preceding value. […]\nPharmacologic Inhibition of Orexin Signaling and Righting Reflex Studies. To determine the effect of the orexin-1R antagonist, SB-334867-A (Tocris Bioscience), on induction of anesthesia, 24 C57BL/6J mice were evaluated for both the concentration at which the righting reflex was lost as well as a separate experiment to measure the latency to loss of righting. […]"}, "[3]": {"settings": "3 nmol i.c.v., regardless of genotype and time of administration"}, "[4]": {"settings": "0.5 nmol/d infused in lateral ventricles, 14 days, wild-type mice"}}, "note": "Where no end group is shown, it is not given here."}
{"compound": "orexin-A: a nonselective agonist for orexin receptor type 1 (OX1R) and OX2R (QPLPDCCRQKTCSCRLYELLHGAGNHAAGILTL; ends and bridges not checked; cysteine pairing not given here; UniProt O43612 34-66, looked up)", "values": [{"measurement": "non-REM sleep in narcoleptic animals compared with wild-type", "setting": "[1]; 3 nmol i.c.v., 3-h period", "value": "significantly greater suppressions of non-REM sleep"}, {"measurement": "wakefulness in orexin/ataxin-3-transgenic mice compared with wild-type mice", "setting": "[1]; 3 nmol i.c.v., 3-h period", "value": "significantly greater amounts of wakefulness"}, {"measurement": "elevation of REM sleep in narcoleptic mice", "setting": "[1]; 3 nmol i.c.v., dark phase", "value": "effectively suppressed this elevation of REM sleep"}, {"measurement": "non-REM and REM sleep", "setting": "[1]; [3]", "value": "suppressed both non-REM and REM sleep"}, {"measurement": "wakefulness", "setting": "[1]; [3]", "value": "strikingly increased wakefulness"}, {"measurement": "REM sleep suppression, narcoleptic mice vs wild-type controls", "setting": "[1]; 3 nmol i.c.v., regardless of the time of administration", "value": "more effective at suppressing REM sleep in narcoleptic mice than in wild-type controls"}, {"measurement": "effects in knockout mice lacking both OX1R and OX2R genes", "setting": "[1]; 3 nmol per mouse i.c.v.", "value": "no detectable effects"}, {"measurement": "cumulative wakefulness and cumulative sleep in narcoleptic animals", "setting": "[1]; 24 h after a nocturnal administration", "value": "statistically significant increase of cumulative wakefulness and a decrease of cumulative sleep"}, {"measurement": "immediate rebounds of sleep", "setting": "[1]; after dark-phase or light-phase administration", "value": "no immediate rebounds of sleep were observed"}, {"measurement": "frequency of cataplectic arrests", "setting": "[2]", "value": "significantly reduced"}, {"measurement": "overall time spent in cataplexy", "setting": "[2]", "value": "significantly reduced"}]}
{"compound": "[Ala11, D-Leu15] Orexin-B", "values": [{"measurement": "weight gain on a high fat diet", "setting": "wild-type mice; [4]", "value": "suppressed weight gain"}, {"measurement": "weight homeostasis on a low fat diet", "setting": "wild-type mice; [4]", "value": "without altering weight homeostasis"}, {"measurement": "fat mass gain vs vehicle on a high fat diet", "setting": "wild-type mice; 14 days, wild-type mice, high fat diet", "value": "gained significantly less fat mass"}, {"measurement": "fat mass gain on a low fat diet", "setting": "wild-type mice; 14 days, wild-type mice, low fat diet", "value": "no effect was observed"}, {"measurement": "effect for OX2R-deficient mice on a high fat diet", "setting": "wild-type mice; OX2R-deficient mice, high fat diet", "value": "no effect"}, {"measurement": "weight gain", "setting": "wild-type mice; OX2R-deficient mice, high fat diet, n=4", "value": "3.33 ± 0.61", "unit": "g"}, {"measurement": "change in LEPR, POMC, SOCS3, STAT3 transcripts", "setting": "wild-type mice; after 14 days", "value": "no significant change"}, {"measurement": "hypothalamic mRNA expression of orexigenic factors NPY and AGRP", "setting": "wild-type mice; after 14 days, high fat diet compared to low fat diet", "value": "reduced hypothalamic mRNA expression"}, {"measurement": "food intake", "setting": "wild-type mice; high fat vs low fat diet", "value": "reduced food intake only on a high fat but not on low fat diet"}]}
{"compound": "Cc1nc2ccc(NC(=O)Nc3ccnc4cccnc34)cc2o1.Cl", "note": "[SB-334867-A]", "values": [{"measurement": "emergence from isoflurane anesthesia, dose dependence", "setting": "wild type C57BL/6J mice; 5 mg/kg or 20 mg/kg i.p., 1.25% isoflurane", "value": "dose-dependent delay in emergence"}, {"measurement": "emergence from isoflurane anesthesia", "setting": "wild type C57BL/6J mice; 20 mg/kg i.p. (F2,45=8.80, P<0.001)", "value": "significantly delayed emergence"}]}
